Laboratory results taken from publication PMC12203525, “The insight into the biology of five homologous lectins produced by the entomopathogenic bacterium and nematode symbiont Photorhabdus laumondii” (Glycobiology, 2025).

What was measured:
[1] = target: PLL (Photorhabdus laumondii subsp. laumondii, UniProt Q7N8J0); assay: SPR, apparent KD on immobilized sugar; design: species or system Photorhabdus laumondii subsp. laumondii TT01; conditions: PLL binding to the immobilized sugar, 25 °C, read-out: KD(app)
Protocol: (§1) SPR experiments were carried out on BIAcore T200 or BIAcore S200 instruments (GE Healthcare, UK). Sugar moieties were immobilized on the chip surface using the standard procedures according to the manufacturer’s instructions. Measurements with immobilized MGMR were performed on the chip prepared previously (high-density chip) ([Fujdiarová et al. 2021]). Measurements with immobilized α-L-fucose were performed on the streptavidin chip (GE Healthcare, UK). Biotinylated α-L-fucose was immobilized on channel 2 to yield a final response of 29 RU, unmodified channel 1 was used as a control.
(§2) Measurements were performed in Tris buffer with the addition of 0.05% Tween 20 at a flow rate of 30 μl/min at 25 °C. […] 50 mM NaOH for 30 s (flow 30 μl/min) was used for chip regeneration. To determine KDs (app) towards MGMR, 2-fold dilution series of lectins was used (PLL: 0.048 – 50 μM, PLL4: 0.008 - 2 μM; PLL5: 1.9 – 500 nM). The data were evaluated with the BIAcore T200 or BIAcore S200 evaluation software using a steady state approach. To determine KD(app) towards α-L-fucose, 2-fold dilution series of lectins was used (PLL: 1.25 – 20 μM, PLL4: 0.39 – 12.5 μM; PLL5: 0.12 – 30 μM). The data were evaluated with the BIAcore T200 or BIAcore S200 evaluation software using a steady state approach (PLL5) or a single-cycle kinetics approach (PLL, PLL4). For SPR inhibition experiments on the MGMR channel, 250 nM PLL, 250 nM PLL4 or 62 nM PLL5, respectively, was used. Proteins of the given concentration were mixed with a concentration series of tested inhibitors (0.01 - 0.4 M). Proteins without an inhibitor were used as a control. The response of the lectin bound to the sugar surface at equilibrium was plotted against the concentration of inhibitor in order to determine IC50. The response in the appropriate blank channel was subtracted prior to all evaluations.

[2] = target: T1, PLL4 (Photorhabdus laumondii subsp. laumondii, UniProt Q7N8I6); assay: SPR, apparent KD on immobilized sugar; design: species or system Photorhabdus laumondii subsp. laumondii TT01; conditions: PLL4 binding to the immobilized sugar, 25 °C, read-out: KD(app)
Protocol: as §1, §2

[3] = target: PLL5 (Photorhabdus laumondii subsp. laumondii, UniProt Q7N8I5); assay: SPR, apparent KD on immobilized sugar; design: species or system Photorhabdus laumondii subsp. laumondii TT01; conditions: PLL5 binding to the immobilized sugar, 25 °C, read-out: KD(app)
Protocol: as §1, §2

[4] = target: PLL2; design: method as in Faltinek et al. 2019; Fujdiarová et al. 2021; conditions: PLL2 binding to the immobilized sugar, SPR; ref Faltinek et al. 2019; Fujdiarová et al. 2021; read-out: KD(app); cited from earlier work
[5] = target: PLL3; design: method as in Faltinek et al. 2019; Fujdiarová et al. 2021; conditions: PLL3 binding to the immobilized sugar, SPR; ref Faltinek et al. 2019; Fujdiarová et al. 2021; read-out: KD(app); cited from earlier work
[6] = target: T1, PLL4; assay: Glycan microarray screening (634 saccharide ligands); type: binding, Photorhabdus laumondii subsp. laumondii TT01; conditions: DyLight488-labelled PLL4, 200 μg/mL
Protocol: Lectins were fluorescently labelled with DyLight 488 according to the manufacturer’s instructions and the unbound dye was extensively dialyzed out of the protein solution. The microarray chip (Semiotik LLC, Moscow, Russia, batch OSPS280715) containing 634 saccharide ligands, each in 6 replicates, was treated with PBS (137 mM NaCl, 2.7 mM KCl, 8 mM Na2HPO4, […], pH 7.4) with added 0.1% Tween-20 for 15 min. The labelled proteins (200 μg/mL) were then separately applied to the chip surface and incubated in a humidity chamber at 37 °C for 1 h. After the incubation, the unbound protein was washed out with PBS containing 0.05% Tween-20 and deionized water. The chip was dried by airflow and scanned using an InnoScan1100 AL (Innopsys, Carbonne, France) with a 488 nm laser. The data were analyzed with the software Mapix 8.2.2 and an online glycan chip converter (Semiotic, https://rakitko.shinyapps.io/semiotik).

T1 sequence (Q7N8I6 entry or part of it): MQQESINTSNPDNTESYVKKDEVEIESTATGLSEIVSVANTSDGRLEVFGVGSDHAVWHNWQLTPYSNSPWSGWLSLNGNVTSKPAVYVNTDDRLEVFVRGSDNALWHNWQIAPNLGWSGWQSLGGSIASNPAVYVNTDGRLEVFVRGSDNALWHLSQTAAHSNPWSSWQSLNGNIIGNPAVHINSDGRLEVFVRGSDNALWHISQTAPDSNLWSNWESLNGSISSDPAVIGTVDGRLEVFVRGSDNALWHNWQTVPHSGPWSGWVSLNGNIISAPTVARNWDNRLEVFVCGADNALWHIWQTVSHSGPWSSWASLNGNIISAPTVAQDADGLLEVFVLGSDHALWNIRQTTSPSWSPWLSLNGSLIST
PLL5, sequence (Q7N8I5 entry or part of it): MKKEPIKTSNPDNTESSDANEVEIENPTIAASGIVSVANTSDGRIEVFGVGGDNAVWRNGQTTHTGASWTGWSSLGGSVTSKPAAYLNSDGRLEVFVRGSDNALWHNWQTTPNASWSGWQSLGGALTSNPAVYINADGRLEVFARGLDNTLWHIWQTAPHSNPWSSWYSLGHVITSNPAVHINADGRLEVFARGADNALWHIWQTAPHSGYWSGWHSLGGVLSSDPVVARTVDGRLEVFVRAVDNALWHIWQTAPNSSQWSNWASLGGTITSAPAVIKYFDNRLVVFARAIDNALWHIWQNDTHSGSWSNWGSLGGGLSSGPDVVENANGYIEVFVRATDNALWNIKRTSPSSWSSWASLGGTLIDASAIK
PLL, sequence (Q7N8J0 entry or part of it): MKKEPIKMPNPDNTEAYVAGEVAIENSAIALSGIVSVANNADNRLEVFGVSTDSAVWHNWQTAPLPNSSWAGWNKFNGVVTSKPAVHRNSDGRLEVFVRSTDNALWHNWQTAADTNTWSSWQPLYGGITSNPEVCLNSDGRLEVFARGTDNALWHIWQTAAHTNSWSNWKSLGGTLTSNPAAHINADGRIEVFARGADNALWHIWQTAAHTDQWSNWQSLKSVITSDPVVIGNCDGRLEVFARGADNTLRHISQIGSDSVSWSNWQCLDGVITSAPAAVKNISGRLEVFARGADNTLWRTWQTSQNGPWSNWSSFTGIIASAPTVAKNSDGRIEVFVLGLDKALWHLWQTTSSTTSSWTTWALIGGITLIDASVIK

Row | Molecule | Kd [1] [µM] | Kd [2] [µM] | Kd [3] [µM] | Kd [4] [µM] | Kd [5] [µM] | glycan array binding (in words) [6]
1 | COC[C@H]1O[C@@H](O[C@@H]2[C@@H](OC)[C@@H](OC)[C@H](O)O[C@H]2C)[C@H](O)[C@@H](OC)[C@@H]1O [MGMR, 3,6-O-Me2-D-Glcβ1-4(2,3-O-Me2)-L-Rhaα] | 44 ± 4.6 | 0.8 ± 0.06 | 0.3 ± 0.03 | 0.0061 ± 0.0002 | 607 ± 46 | 
2 | α-L-fucoside | 8.5 ± 0.2 | 4.3 ± 0.1 | 64 ± 8.6 | 117 ± 4.8 | 322 ± 86 | recognized
